Measurements: US8946147B2 (priority 2010, dated 2015)
“And” between values parts separate entries of the source, which are not always exact repeats. Equal values may be shown once. Positions of bridges follow the written chain, without caps; N, C: chain ends. Non-standard residues stand in square brackets, D forms with d. Residues, ends and D or L forms follow the SMILES beside them. Chains are numbered I, II in the order given. *: point of attachment. Phe(4-NH2) = Nc1ccc(C[C@H](N)C(=O)O)cc1; X1 = NOCC(=O)*

Key:
human insulin receptor = biological target: T1, human insulin receptor (Homo sapiens, UniProt P06213); assay: Insulin receptor binding assay (scintillation proximity competition); conditions: for % Activity of Insulin: Table 3A, in vitro binding
T1 construct: expressed in transfected cells; plasma membrane fragments
T1 sequence (P06213 28-758 limits assumed): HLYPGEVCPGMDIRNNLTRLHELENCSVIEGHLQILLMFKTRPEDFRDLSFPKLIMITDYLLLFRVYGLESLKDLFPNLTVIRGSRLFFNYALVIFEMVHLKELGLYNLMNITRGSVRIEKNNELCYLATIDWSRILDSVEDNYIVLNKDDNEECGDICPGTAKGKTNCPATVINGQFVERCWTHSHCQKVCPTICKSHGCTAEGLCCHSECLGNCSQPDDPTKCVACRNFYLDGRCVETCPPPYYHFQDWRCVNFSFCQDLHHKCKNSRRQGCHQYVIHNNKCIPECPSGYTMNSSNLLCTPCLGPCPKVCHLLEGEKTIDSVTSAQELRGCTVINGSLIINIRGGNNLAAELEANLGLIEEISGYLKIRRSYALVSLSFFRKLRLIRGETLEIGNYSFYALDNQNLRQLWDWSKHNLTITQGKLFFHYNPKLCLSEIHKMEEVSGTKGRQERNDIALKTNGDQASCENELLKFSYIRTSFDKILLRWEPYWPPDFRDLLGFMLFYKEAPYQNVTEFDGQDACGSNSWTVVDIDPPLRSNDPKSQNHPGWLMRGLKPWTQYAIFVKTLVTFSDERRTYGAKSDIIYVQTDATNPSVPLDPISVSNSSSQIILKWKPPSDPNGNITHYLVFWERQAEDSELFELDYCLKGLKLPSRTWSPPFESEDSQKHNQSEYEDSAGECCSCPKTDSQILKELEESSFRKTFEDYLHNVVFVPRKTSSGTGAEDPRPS
T1 sequence (P06213 763-1382 partner limits assumed): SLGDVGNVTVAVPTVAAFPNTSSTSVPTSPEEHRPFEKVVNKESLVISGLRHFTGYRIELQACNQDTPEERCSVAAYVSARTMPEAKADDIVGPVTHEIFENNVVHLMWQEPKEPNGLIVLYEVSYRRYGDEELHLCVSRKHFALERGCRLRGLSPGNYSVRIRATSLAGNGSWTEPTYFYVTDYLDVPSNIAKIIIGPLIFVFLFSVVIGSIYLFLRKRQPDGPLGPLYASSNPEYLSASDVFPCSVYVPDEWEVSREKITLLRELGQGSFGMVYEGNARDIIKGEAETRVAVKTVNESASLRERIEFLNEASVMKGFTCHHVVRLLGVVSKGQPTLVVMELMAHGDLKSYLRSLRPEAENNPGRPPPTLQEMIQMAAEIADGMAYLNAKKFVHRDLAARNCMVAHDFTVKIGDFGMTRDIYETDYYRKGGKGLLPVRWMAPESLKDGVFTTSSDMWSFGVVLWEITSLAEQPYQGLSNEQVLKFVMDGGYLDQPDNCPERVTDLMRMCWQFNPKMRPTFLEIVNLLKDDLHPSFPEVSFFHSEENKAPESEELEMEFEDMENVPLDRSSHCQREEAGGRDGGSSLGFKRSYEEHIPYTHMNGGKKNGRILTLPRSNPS

[1] = biological target: insulin B subtype receptor (IR-B) (Homo sapiens, UniProt P06213); assay: Phosphorylation assay at insulin B subtype receptor; conditions: Table 14
Chain of insulin B subtype receptor (IR-B) (P06213 28-758 limits assumed): as the sequence (P06213 28-758 limits assumed) above
Chain of insulin B subtype receptor (IR-B) (P06213 763-1382 partner limits assumed): as the sequence (P06213 763-1382 partner limits assumed) above

[2] = biological target: insulin A subtype receptor (IR-A) (Homo sapiens, UniProt P06213); assay: Phosphorylation assay at insulin A subtype receptor; conditions: Table 14
Chain of insulin A subtype receptor (IR-A) (P06213 28-1370 isoform P06213-2 limits assumed): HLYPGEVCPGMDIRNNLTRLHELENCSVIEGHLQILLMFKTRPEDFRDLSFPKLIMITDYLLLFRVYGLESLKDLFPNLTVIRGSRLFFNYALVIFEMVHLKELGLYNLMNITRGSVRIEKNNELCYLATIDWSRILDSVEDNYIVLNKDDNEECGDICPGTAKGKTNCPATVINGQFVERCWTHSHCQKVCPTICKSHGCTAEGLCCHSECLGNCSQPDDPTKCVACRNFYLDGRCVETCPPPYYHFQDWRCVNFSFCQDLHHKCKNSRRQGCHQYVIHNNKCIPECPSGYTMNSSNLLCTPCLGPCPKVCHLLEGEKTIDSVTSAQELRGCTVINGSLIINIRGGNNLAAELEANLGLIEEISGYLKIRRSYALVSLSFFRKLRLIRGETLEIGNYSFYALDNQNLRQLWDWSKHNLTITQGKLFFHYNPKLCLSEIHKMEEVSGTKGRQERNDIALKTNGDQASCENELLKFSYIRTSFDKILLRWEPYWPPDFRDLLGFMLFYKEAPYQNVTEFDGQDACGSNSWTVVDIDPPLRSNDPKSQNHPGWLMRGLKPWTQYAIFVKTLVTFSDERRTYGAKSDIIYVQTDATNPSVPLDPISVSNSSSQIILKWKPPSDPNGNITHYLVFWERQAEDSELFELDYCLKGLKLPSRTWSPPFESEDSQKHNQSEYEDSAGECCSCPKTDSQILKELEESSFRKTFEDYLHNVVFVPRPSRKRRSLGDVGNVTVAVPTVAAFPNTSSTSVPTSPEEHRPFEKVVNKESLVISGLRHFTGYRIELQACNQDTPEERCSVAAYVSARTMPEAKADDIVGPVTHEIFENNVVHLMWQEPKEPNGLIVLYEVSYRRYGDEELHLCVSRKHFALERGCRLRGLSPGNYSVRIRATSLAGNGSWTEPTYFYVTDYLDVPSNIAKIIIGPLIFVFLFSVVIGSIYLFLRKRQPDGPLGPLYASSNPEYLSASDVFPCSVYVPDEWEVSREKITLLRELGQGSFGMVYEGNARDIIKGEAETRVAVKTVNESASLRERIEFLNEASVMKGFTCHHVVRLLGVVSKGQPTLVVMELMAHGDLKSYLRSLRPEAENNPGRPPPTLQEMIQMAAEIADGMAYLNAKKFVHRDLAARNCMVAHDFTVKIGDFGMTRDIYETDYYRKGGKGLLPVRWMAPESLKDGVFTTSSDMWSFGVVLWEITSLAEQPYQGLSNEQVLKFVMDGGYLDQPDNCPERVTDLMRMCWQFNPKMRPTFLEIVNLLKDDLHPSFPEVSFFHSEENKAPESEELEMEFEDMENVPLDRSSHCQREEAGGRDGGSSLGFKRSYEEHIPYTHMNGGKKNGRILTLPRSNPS
Chain of insulin A subtype receptor (IR-A) (P06213 763-1382 partner limits assumed): as the sequence (P06213 763-1382 partner limits assumed) above

[3] = biological target: T2, insulin receptor (receptor transfected HEK293 cells) (Homo sapiens, UniProt P06213); assay: Insulin receptor phosphorylation assay; assay type: cell-based; conditions: for % Activity of Insulin: Table 3B, in vitro phosphorylation
T2 construct: expressed in transfected cells; host or cells: HEK293
T2 sequence (P06213 28-758 limits assumed): as the sequence (P06213 28-758 limits assumed) above
T2 sequence (P06213 763-1382 partner limits assumed): as the sequence (P06213 763-1382 partner limits assumed) above

IGF-1 Receptor [4] = biological target: T3, IGF-1 Receptor (Homo sapiens, UniProt P08069); assay: IGF-1 receptor phosphorylation assay; assay type: cell-based; parameters: expressed in transfected cells; host or cells: HEK293; conditions: Table 10
T3 sequence (P08069 31-736 limits assumed): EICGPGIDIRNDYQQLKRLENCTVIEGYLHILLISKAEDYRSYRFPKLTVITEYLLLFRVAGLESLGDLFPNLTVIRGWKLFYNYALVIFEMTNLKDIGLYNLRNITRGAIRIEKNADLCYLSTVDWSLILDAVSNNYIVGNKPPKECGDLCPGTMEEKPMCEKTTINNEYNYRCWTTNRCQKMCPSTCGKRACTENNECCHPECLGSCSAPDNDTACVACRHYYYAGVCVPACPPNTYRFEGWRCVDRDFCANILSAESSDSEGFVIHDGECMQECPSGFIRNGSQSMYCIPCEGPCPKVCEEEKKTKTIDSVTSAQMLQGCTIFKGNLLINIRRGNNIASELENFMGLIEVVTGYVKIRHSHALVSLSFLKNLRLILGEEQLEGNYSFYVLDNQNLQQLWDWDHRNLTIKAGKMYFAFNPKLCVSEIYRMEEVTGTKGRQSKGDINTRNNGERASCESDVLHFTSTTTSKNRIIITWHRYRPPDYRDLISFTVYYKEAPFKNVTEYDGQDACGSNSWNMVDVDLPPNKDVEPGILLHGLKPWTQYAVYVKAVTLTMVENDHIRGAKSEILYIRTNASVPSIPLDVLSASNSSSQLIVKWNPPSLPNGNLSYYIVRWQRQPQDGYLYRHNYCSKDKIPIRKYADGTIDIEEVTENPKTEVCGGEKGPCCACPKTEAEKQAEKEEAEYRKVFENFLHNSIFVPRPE
T3 sequence (P08069 741-1367 partner limits assumed): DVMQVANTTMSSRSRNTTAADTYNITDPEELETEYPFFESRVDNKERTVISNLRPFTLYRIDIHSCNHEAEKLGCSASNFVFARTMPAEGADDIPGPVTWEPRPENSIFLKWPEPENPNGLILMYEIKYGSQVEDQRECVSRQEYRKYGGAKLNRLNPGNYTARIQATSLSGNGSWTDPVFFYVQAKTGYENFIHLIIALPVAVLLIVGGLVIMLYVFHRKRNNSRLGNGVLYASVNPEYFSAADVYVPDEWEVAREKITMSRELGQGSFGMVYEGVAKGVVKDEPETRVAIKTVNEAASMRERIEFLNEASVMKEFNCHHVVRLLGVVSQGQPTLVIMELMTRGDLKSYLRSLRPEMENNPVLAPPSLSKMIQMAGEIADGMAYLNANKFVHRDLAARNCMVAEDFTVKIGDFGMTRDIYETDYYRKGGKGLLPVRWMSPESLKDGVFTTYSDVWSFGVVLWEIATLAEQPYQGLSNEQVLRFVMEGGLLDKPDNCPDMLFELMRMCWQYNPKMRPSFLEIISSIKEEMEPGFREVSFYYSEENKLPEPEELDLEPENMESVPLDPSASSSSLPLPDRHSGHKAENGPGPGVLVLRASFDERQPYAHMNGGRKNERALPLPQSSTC

IGF-1 Receptor [5] = biological target: T3, IGF-1 Receptor; assay: IGF-1 receptor binding assay (scintillation proximity competition); parameters: expressed in transfected cells; plasma membrane fragments; conditions: Table 9
C57/Blk mice = assay: Comparative insulin tolerance test (blood glucose lowering) in mice; assay type: in vivo; conditions: C57 black mice
Source text: […]. […] […]. These in vivo results are consistent with the in vitro analysis.
[…]. […] […].

Compound: CC[C@H](C)[C@H](NC(=O)CN)C(=O)N[C@H](C(=O)N[C@@H](CC(=O)O)C(=O)N[C@@H](CCC(=O)O)C(=O)N[C@@H](C)C(=O)N[C@@H](C)C(=O)N[C@@H](Cc1ccccc1)C(=O)N[C@@H](CCCNC(=N)N)C(=O)N[C@@H](CO)C(=O)N[C@@H](C)C(=O)N[C@@H](CC(=O)O)C(=O)N[C@@H](CC(C)C)C(=O)N[C@@H](CCCNC(=N)N)C(=O)N[C@@H](CCCNC(=N)N)C(=O)N[C@@H](CC(C)C)C(=O)N[C@@H](CCC(=O)O)C(=O)N[C@@H](CCSC)C(=O)N[C@@H](Cc1ccc(NC(=O)CN(C)C(=O)[C@@H](N)CCCCN)cc1)C(=O)N[C@@H](C)C(=O)N[C@@H](C)C(N)=O)C(C)C [K Sar] (HELM PEPTIDE1{G.I.V.D.E.A.A.F.R.S.A.D.L.R.R.L.E.M.[O=C([C@H](Cc1ccc(N[*:3])cc1)N[*:1])[*:2]].A.A.[am]}|PEPTIDE2{K.[Sar]}$PEPTIDE1,PEPTIDE2,19:R3-2:R2$$$V2.0)
- Half Life, 20% Plasma/PBS: 5.9 h

Compound: CC[C@H](C)[C@H](NC(=O)CN)C(=O)N[C@H](C(=O)N[C@@H](CC(=O)O)C(=O)N[C@@H](CCC(=O)O)C(=O)N[C@@H](C)C(=O)N[C@@H](C)C(=O)N[C@@H](Cc1ccccc1)C(=O)N[C@@H](CCCNC(=N)N)C(=O)N[C@@H](CO)C(=O)N[C@@H](C)C(=O)N[C@@H](CC(=O)O)C(=O)N[C@@H](CC(C)C)C(=O)N[C@@H](CCCNC(=N)N)C(=O)N[C@@H](CCCNC(=N)N)C(=O)N[C@@H](CC(C)C)C(=O)N[C@@H](CCC(=O)O)C(=O)N[C@@H](CCSC)C(=O)N[C@@H](Cc1ccc(NC(=O)[C@H]2CCCN2C(=O)C(C)(C)N)cc1)C(=O)N[C@@H](C)C(=O)N[C@@H](C)C(N)=O)C(C)C [Aib dPro] (HELM PEPTIDE1{G.I.V.D.E.A.A.F.R.S.A.D.L.R.R.L.E.M.[O=C([C@H](Cc1ccc(N[*:3])cc1)N[*:1])[*:2]].A.A.[am]}|PEPTIDE2{[Aib].[dP]}$PEPTIDE1,PEPTIDE2,19:R3-2:R2$$$V2.0)
- Half Life, 20% Plasma/PBS: 2.2 h

Compound: CC[C@H](C)[C@H](NC(=O)CN)C(=O)N[C@H](C(=O)N[C@@H](CC(=O)O)C(=O)N[C@@H](CCC(=O)O)C(=O)N[C@H]1CSSC[C@@H]2NC(=O)[C@H](CO)NC(=O)[C@H](C)NC(=O)[C@H](Cc3c[nH]cn3)NC(=O)[C@H](CSSC[C@H](NC(=O)[C@H](CC(C)C)NC(=O)[C@H](Cc3c[nH]cn3)NC(=O)[C@H](CCC(=O)O)NC(=O)[C@@H]3CCCN3C(=O)CN)C(=O)NCC(=O)N[C@@H](C)C(=O)N[C@@H](CC(=O)O)C(=O)N[C@@H](CC(C)C)C(=O)N[C@@H](C(C)C)C(=O)N[C@@H](CC(=O)O)C(=O)N[C@@H](C)C(=O)N[C@@H](CC(C)C)C(=O)N[C@@H](Cc3ccc(O)cc3)C(=O)N[C@@H](CC(C)C)C(=O)N[C@@H](C(C)C)C(=O)N[C@H](C(=O)NCC(=O)N[C@@H](CC(=O)O)C(=O)N[C@@H](C)C(=O)NCC(=O)N[C@@H](Cc3ccccc3)C(=O)N[C@@H](Cc3ccc(O)cc3)C(N)=O)CSSC[C@@H](C(=O)N[C@@H](CC(N)=O)C(=O)O)NC(=O)[C@H](Cc3ccc(O)cc3)NC(=O)[C@H](CC[S+](C)[O-])NC(=O)[C@H](CCC(=O)O)NC(=O)[C@H](CC(C)C)NC(=O)[C@H](CCCNC(=N)N)NC(=O)[C@H](CCCNC(=N)N)NC(=O)[C@H](CC(C)C)NC(=O)[C@H](CC(=O)O)NC2=O)NC1=O)C(C)C (stereo partly shown)
- Insulin Receptor % insulin (in test) (human insulin receptor; Table 9): 400.7%

Compound: I: X1-GPEHLCGAHLVDALYLVCGDRGFY-NH2 / II: H-GIVDECCFRSCDLRRLEN[Phe(4-NH2)]CN-OH (disulfide I:6-II:7, I:18-II:20, II:6-II:11) [Unpegylated pNH2F, B^1Aoa2(H5, H10,Y16,L17)25a: A^1(pNH2—F19, N18, N21]
- % (of insulin) [1]: 48%
- % (of insulin) [2]: 81%

Compound: CC[C@H](C)[C@H](NC(=O)CN)C(=O)N[C@H](C(=O)N[C@@H](CC(=O)O)C(=O)N[C@@H](CCC(=O)O)C(=O)N[C@H]1CSSC[C@@H]2NC(=O)[C@H](CO)NC(=O)[C@H](C)NC(=O)[C@H](Cc3c[nH]cn3)NC(=O)[C@H](CSSC[C@H](NC(=O)[C@H](CC(C)C)NC(=O)[C@H](Cc3c[nH]cn3)NC(=O)[C@H](CCC(=O)O)NC(=O)[C@@H]3CCCN3C(=O)CN)C(=O)NCC(=O)N[C@@H](C)C(=O)N[C@@H](CC(=O)O)C(=O)N[C@@H](CC(C)C)C(=O)N[C@@H](C(C)C)C(=O)N[C@@H](CC(=O)O)C(=O)N[C@@H](C)C(=O)N[C@@H](CC(C)C)C(=O)N[C@@H](Cc3ccc(O)cc3)C(=O)N[C@@H](CC(C)C)C(=O)N[C@@H](C(C)C)C(=O)N[C@H](C(=O)NCC(=O)N[C@@H](CC(=O)O)C(=O)N[C@@H](CCCNC(=N)N)C(=O)NCC(=O)N[C@@H](Cc3ccccc3)C(=O)N[C@@H](Cc3ccc(O)cc3)C(N)=O)CSSC[C@@H](C(=O)N[C@@H](CC(N)=O)C(=O)O)NC(=O)[C@H](Cc3ccc(O)cc3)NC(=O)[C@H](CCSC)NC(=O)[C@H](CCC(=O)O)NC(=O)[C@H](CC(C)C)NC(=O)[C@H](CCCNC(=N)N)NC(=O)[C@H](CCCNC(=N)N)NC(=O)[C@H](CC(C)C)NC(=O)[C@H](CC(=O)O)NC2=O)NC1=O)C(C)C
- Insulin Receptor % Insulin ([3]; Table 10, listed as IGF-1 A (H8 A9 N21) B (H5D10Y16L17) DPI A-COOH): 840% and 1080%
- Ratio (human insulin receptor; Table 9, IGF-1 receptor IC50 / insulin receptor IC50): 80.6
- IGF-1 Receptor % IGF (IGF-1 Receptor [4]): 181.395%
- IGF-1 Receptor % IGF-1 (in test) (IGF-1 Receptor [5]): 12.9%

Compound: CC[C@H](C)[C@H](NC(=O)CNC(=O)[C@@H]1CCCN1C(=O)[C@H](C)N)C(=O)N[C@H](C(=O)N[C@@H](CC(=O)O)C(=O)N[C@@H](CCC(=O)O)C(=O)N[C@H]1CSSC[C@@H]2NC(=O)[C@H](CO)NC(=O)[C@H](CCCNC(=N)N)NC(=O)[C@H](Cc3ccccc3)NC(=O)[C@H](CSSC[C@H](NC(=O)[C@H](CC(C)C)NC(=O)[C@@H](NC(=O)[C@H](CCC(=O)O)NC(=O)[C@@H]3CCCN3C(=O)CN)[C@@H](C)O)C(=O)NCC(=O)N[C@@H](C)C(=O)N[C@@H](CCC(=O)O)C(=O)N[C@@H](CC(C)C)C(=O)N[C@@H](C(C)C)C(=O)N[C@@H](CC(=O)O)C(=O)N[C@@H](C)C(=O)N[C@@H](CC(C)C)C(=O)N[C@@H](Cc3ccc(O)cc3)C(=O)N[C@@H](CC(C)C)C(=O)N[C@@H](C(C)C)C(=O)N[C@H](C(=O)NCC(=O)N[C@@H](CC(=O)O)C(=O)N[C@@H](CCCNC(=N)N)C(=O)NCC(=O)N[C@@H](Cc3ccccc3)C(=O)N[C@@H](Cc3ccc(O)cc3)C(=O)N[C@@H](Cc3ccccc3)C(=O)N[C@@H](CC(N)=O)C(=O)N[C@@H](CCCCN)C(=O)N3CCC[C@H]3C(=O)N[C@H](C(N)=O)[C@@H](C)O)CSSC[C@@H](C(=O)N[C@@H](C)C(N)=O)NC(=O)[C@H](Cc3ccc(O)cc3)NC(=O)[C@H](CCSC)NC(=O)[C@H](CCC(=O)O)NC(=O)[C@H](CC(C)C)NC(=O)[C@H](CCCNC(=N)N)NC(=O)[C@H](CCCNC(=N)N)NC(=O)[C@H](CC(C)C)NC(=O)[C@H](CC(=O)O)NC2=O)NC1=O)C(C)C [IGF1(YL)A-1, 0^B16, 17(AlaPro)]
- % of Insulin Activity (human insulin receptor; Table 8): 37.12%
- insulin receptor binding (in words) (human insulin receptor; relative to native insulin): substantially reduced affinity for the insulin receptor

Compound: B^1(Y16,L17,Y25)29a: A^1(dLys(Ac),Sar-aF19) [MIU30]
- % Activity of Insulin ([3]; incubated 1 hr in 20% plasma): 23.0%
- % Activity of Insulin ([3]; incubated 3 hr in 20% plasma): 26.8%
- % Activity of Insulin ([3]; incubated 6 hr in 20% plasma): 32.5%
- % Activity of Insulin ([3]; incubated 9 hr in 20% plasma): 41.1%
- % Activity of Insulin ([3]; incubated […] in 20% plasma): 43.2%
- % Activity of Insulin (human insulin receptor; incubated 0 hr in 20% plasma/PBS at 37° C.): 34.44%
- % Activity of Insulin (human insulin receptor; incubated 9 hr in 20% plasma/PBS at 37° C.): 100.09%
- % Activity of Insulin (human insulin receptor; incubated 95 hr in 20% plasma/PBS at 37° C.): 115.42%
- blood glucose (differential AUC vs vehicle, 8 hr) (C57/Blk mice; 90 nmol/kg): little change in glucose
- blood glucose (differential AUC vs vehicle, 8 hr) (C57/Blk mice; 270 nmol/kg): glucose lowering

Compound: CC[C@H](C)[C@H](NC(=O)CN)C(=O)N[C@H](C(=O)N[C@@H](CC(=O)O)C(=O)N[C@@H](CCC(=O)O)C(=O)N[C@@H](C)C(=O)N[C@@H](C)C(=O)N[C@@H](Cc1ccccc1)C(=O)N[C@@H](CCCNC(=N)N)C(=O)N[C@@H](CO)C(=O)N[C@@H](C)C(=O)N[C@@H](CC(=O)O)C(=O)N[C@@H](CC(C)C)C(=O)N[C@@H](CCCNC(=N)N)C(=O)N[C@@H](CCCNC(=N)N)C(=O)N[C@@H](CC(C)C)C(=O)N[C@@H](CCC(=O)O)C(=O)N[C@@H](CCSC)C(=O)N[C@@H](Cc1ccc(NC(=O)[C@@H]2CCCN2C(=O)C(C)(C)N)cc1)C(=O)N[C@@H](C)C(=O)N[C@@H](C)C(N)=O)C(C)C [Aib Pro] (HELM PEPTIDE1{G.I.V.D.E.A.A.F.R.S.A.D.L.R.R.L.E.M.[O=C([C@H](Cc1ccc(N[*:3])cc1)N[*:1])[*:2]].A.A.[am]}|PEPTIDE2{[Aib].P}$PEPTIDE1,PEPTIDE2,19:R3-2:R2$$$V2.0)
- Half Life, 20% Plasma/PBS: 2.1 h
